Columns and labels:
[1] = system: animal cap cells (pluripotent cell aggregates) at the blastula stage; details: activin at a high concentration; cited from earlier work
[2] = system: embryoid bodies from ES cells (E14 cells or B6 cells); assay: Formation of heart (autonomically beating cardiac muscle-like cell aggregates) from embryoid bodies using RXR ligand; format: cell-based, mouse; design: frequency of appearance of autonomically beating cardiac muscle-like cell aggregates: dose or concentration left out as unconfirmed
Method: (§1) As ES cells, E 14 cells of the 29 mouse strain (ATCC #: CRL-1821) or B6 cells of the C57BL mouse strain (ATCC #: SCRC-1002) were used. Mouse fetal fibroblasts prepared from a mouse embryo on the 13th day were inoculated on a 0.1% gelatin-coated culture dish, and cultured in a medium containing 12% fetal bovine serum (Gibco), 100 U/ml penicillin (Sigma) and 100 μg/ml streptomycin (Sigma) for 24 hours. These cells were treated with 10 μg/ml mytomicin C (MMC, Sigma) for four hours to inhibit cell division and then washed twice with phosphate-buffered saline (PBS) to remove MMC. The ES cells were inoculated on these fibroblasts (feeder). As the medium for the ES cells, D-MEM (high glucose, Gibco) containing 15% fetal bovine serum for ES (Gibco), 2 mM L-glutamine (Gibco), MEM non-essential amino acid (Sigma), 1 mM sodium pyruvate (Gibco), 0.0007% β-mercaptoethanol (Sigma), 1000 U/ml Leukemia inhibiting factor (Chemicon), 100 U/ml penicillin (Sigma) and 100 μg/ml streptomycin (Sigma) was used, and the cells were cultured in a CO2 incubator (5% CO2, 100% humidity) at 37° C. The medium was exchanged every day.
(§2) Subculture was performed 72 hours after the inoculation of the ES cells. MMC-treated feeder cells (mouse fetus fibroblasts) were inoculated on a gelatin-coated culture dish, and after 24 hours, the ES cells completely dissociated by a treatment with 0.05% trypsin-0.02% EDTA were inoculated to allow formation of colonies (see, FIG. 1). The ES cells were cultured for three days after the inoculation to allow formation of colonies, and a colony was isolated by pipetting and then inoculated on a culture dish for bacteria with an extremely low cell attachment property. As the medium, D-MEM (high glucose) containing 15% Knockout SR (KSR, Gibco), 100 U/ml penicillin and 100 μg/ml streptomycin was used. The cells were further cultured for three days under this condition to prepare embryoid bodies (FIG. 2). […]

[3] = system: embryoid bodies from ES cells; assay: Formation of smooth muscle-like cells from embryoid bodies using RXR ligand; format: cell-based, mouse; details: 1×10^−5 to 2×10^−6 M PA024, then further cultured
Method: as §1
Subculture was performed 72 hours after the inoculation of the ES cells. […]

[4] = system: embryoid bodies from ES cells; assay: Formation of adipocytes from embryoid bodies using RXR ligand; format: cell-based, mouse; design: adipocytes formed in comparison with the control group (all-trans retinoic acid): dose or concentration left out as unconfirmed
Method: as §1, §2

Q: For activin, which “formation rate of rhythmically beating heart” value [1] is on record?
A: 60%

Q: Which “differentiation of cardiac muscle-like cells” value ([2]; control group treated with 1×10^−5 M, over two weeks after the treatment) does the source give for `CC1=C(/C=C/C(C)=C/C=C/C(C)=C/C(=O)O)C(C)(C)CCC1` [all-trans retinoic acid] here?
A: almost no differentiation

Q: Which “formation of cardiac muscle-like cell aggregates” value ([2]; 2×10−6 M PA024) does the source give for `CC1(C)CCC(C)(C)c2cc(N(CC3CC3)c3ncc(C(=O)O)cn3)ccc21` [PA024, 2-[N-cyclopropylmethyl-N-(5,6,7,8-tetrahydro-5,5,8,8-tetramethylnaphthalen-2-yl)amino]pyrimidine-5-carboxylic acid] here?
A: 0.5 cell aggregate per embryoid body

Q: What about the “frequency of appearance of autonomically beating cardiac muscle-like cell aggregates” value ([2]; PA024, cultured for 2 days) of the same molecule?
A: 0.2 cell aggregate per embryoid body

Q: And the “time of formation of smooth muscle-like cells” value [3]?
A: one to two

Q: What about the “time of appearance of adipocytes” value ([4]; 1×10^−5 to 2×10^−6 M PA024) of the same molecule?
A: about two

Q: And the “adipocyte formation in terms of the value per embryoid body” value ([4]; 1×10^−5 to 2×10^−6 M PA024, culture continued for 20 days)?
A: ~100%

Q: And the “adipocytes formed in comparison with the control group (all-trans retinoic acid)” value ([4]; PA024 treated group versus all-trans retinoic acid control)?
A: two or three times more

Source: patent US8105833B2, “Method for forming organ” (Research Foundation Itsuu Laboratory, priority 2003, dated 2012)
